Results published in patent US10517889B2, “Modulators of SMAD7 expression” (Ionis Pharmaceuticals, Inc., priority 2017, dated 2019).
Values joined by “and” are separate entries in the source; they are usually repeats but may differ in a detail not shown here. Equal entries are not always repeated. Strand notation (5' to 3'): a small letter for the sugar, then the base; units joined by * are phosphorothioate-linked, units joined directly phosphodiester-linked; [ ] holds rarer units or linkages, { } end groups; capitals alone tell only the bases. k = constrained ethyl (cEt); [5mC] = 5-methylcytosine; d = 2'-deoxy (DNA)

Tests used:
human SMAD7 mRNA [1] = test: Antisense inhibition of human SMAD7 mRNA expression in Hep3B cells by 3-10-3 cEt gapmers, 10,000 nM, electroporation (Example 2); assay type: cell-based; conditions: approximately 24 hours
How it was run: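 SMAD7 mRNA was measured by real-time PCR (RTS5062) with RiboGreen total-RNA normalization, about 24 h after 10,000 nM gapmer was delivered by electroporation into Hep3B cells at 20,000 per well. Gapmers were 16-mer 3-10-3 cEt, fully phosphorothioate; values are % inhibition versus untreated controls.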

human SMAD7 mRNA [2] = test: Dose-dependent inhibition of human SMAD7 mRNA expression in Hep3B cells (Example 3, Study 1 and 2); assay type: cell-based; conditions: electroporation; for % inhibition of SMAD7 mRNA expression: approximately 16 hours; for IC50: Study 2 (740-20000 nM)
How it was run: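 Hep3B cells, 20,000 per well, electroporated with antisense oligonucleotide at 0.31, 1.25, 5.00 or 20.00 μM (first series) or 0.74, 2.22, 6.67 or 20.00 μM (second series). After ~16 h, SMAD7 mRNA measured by RT-qPCR (RTS5062), normalised to RIBOGREEN total RNA. Percent inhibition vs untreated cells; IC50 derived.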

human SMAD7 mRNA [3] = test: Dose-dependent inhibition of human SMAD7 mRNA expression in Hep3B cells, comparison with ION 28453 (Example 4); assay type: cell-based; conditions: electroporation, approximately 16 hours; for IC50: SMAD7 mRNA
Protocol: Cells were plated at a density of 20,000 cells per well and transfected using electroporation with 0.25 μM, 0.74 μM, 2.22 μM, 6.67 μM, or 20.00 μM concentrations of antisense oligonucleotide, as specified in the Tables below. After a treatment period of approximately 16 hours, RNA was isolated from the cells and SMAD7 mRNA levels were measured by quantitative real-time PCR. Primer probe set RTS5062 was used to measure human SMAD7 mRNA levels. SMAD7 mRNA levels were adjusted according to total RNA content, as measured by RIBOGREEN®. Results are presented as percent inhibition of SMAD7 mRNa expression, relative to untreated control cells.
The half maximal inhibitory concentration (IC50) of each oligonucleotide is also presented. […] Several newly designed antisense oligonucleotides had greater potency than the previously disclosed lead compound, ION 28453.

mouse Smad7 mRNA [4] = test: Murine Smad7 mRNA expression after oral administration in BALB/c mice (Example 11); assay type: in vivo; conditions: 500 mg/kg/day oral for 3 weeks, 24 hours after last dose
Protocol: The objective of this study was to evaluate the efficacy of Ionis SMAD7 antisense oligonucleotides in BALB/c mice following daily oral administration. The Ionis oligonucleotides are cross-reactive with mouse Smad7 mRNA.
Groups of BALB/c mice were orally administered 500 mg/kg/day for 3 weeks of human Smad7 oligonucleotides, ION 790615, ION 798781, or ION 830025, or mouse Smad7 oligonucleotide, ION 772797 (a 3-10-3 cEt gapmer with phosphorothioate backbone and sequence […]; designated herein as SEQ ID NO: 2743). One group of mice was orally administered PBS daily for 3 weeks. Each group contained 4 mice.
To evaluate the efficacy of the oligonucleotides, murine Smad7 mRNA expression in the liver, kidneys, duodenum, ileum, and colon was measured using primer probe set RTS1114.

[5] = Plasma chemistry markers after subcutaneous administration in CD-1 mice (Example 6); assay type: in vivo; conditions: CD-1 mice plasma at day 46; 50 mg/kg subcutaneously twice a week for 7 weeks
Protocol: CD-1® mice (Charles River, Mass.) are a multipurpose mice model, frequently utilized for safety and efficacy testing. The mice were treated with Ionis human SMAD7 antisense oligonucleotides selected from studies described above and evaluated.
Groups of 8-9 week old male CD-1 mice were injected subcutaneously twice a week for 7 weeks with 50 mg/kg of Ionis oligonucleotides (100 mg/kg/week dose). Each group contained 4 mice. One group of male CD-1 mice was injected subcutaneously twice a week for 7 weeks with PBS. […]

[6] = Organ weights after subcutaneous administration in CD-1 mice (Example 6); assay type: in vivo; conditions: end of study, 50 mg/kg subcutaneously twice a week for 7 weeks
Protocol: (§1) Groups of 8-9 week old male CD-1 mice were injected subcutaneously twice a week for 7 weeks with 50 mg/kg of Ionis oligonucleotides (100 mg/kg/week dose). Each group contained 4 mice. One group of male CD-1 mice was injected subcutaneously twice a week for 7 weeks with PBS. Plasma was collected for analysis on day 28.
Ionis SMAD7 oligonucleotides that caused any changes in organ weights outside the expected range for antisense oligonucleotides were excluded from further studies.

[7] = Hematology assays after subcutaneous administration in CD-1 mice (Example 6); assay type: in vivo; set-up: RBC / Eosinophils / Monocytes: unit not given here; conditions: 50 mg/kg subcutaneous twice weekly for 7 weeks
Protocol: as §1
Blood obtained from all mouse groups was measured by an ADVIA2120i hematology analyzer (Siemens, USA) for measurements of the various blood cells, as well as other hematology markers.

mouse Smad7 mRNA [8] = test: Murine Smad7 mRNA expression after subcutaneous administration in BALB/c mice (Example 10); assay type: in vivo; conditions: 50 mg/kg subcutaneous once a week for 4 weeks, 24 hours after last dose
Protocol: The objective of this study was to evaluate the efficacy of Ionis SMAD7 antisense oligonucleotides compared to ION 736697/Mongersen in BALB/c mice following 4 weeks of treatment. Both ION 830025 and ION 798781 are cross-reactive with mouse Smad7 mRNA.
Groups of BALB/c mice were subcutaneously administered 50 mg/kg of Ionis SMAD7 oligonucleotides once a week for 4 weeks. Each group contained 4 mice. One group of mice was administered PBS once a week for 4 weeks. […]

[9] = SMAD7 mRNA, Hep3B cells, 10,000 nM antisense oligonucleotide, electroporation, primer probe set RTS5062, relative to untreated control cells
[10] = 740 nM, Study 2, relative to untreated control cells

772568 (antisense kA*kG*k[5mC]*d[5mC]*dT*d[5mC]*dT*dT*dG*dA*d[5mC]*dT*dT*k[5mC]*k[5mC]*kG) [compound 772568]
% inhibition of SMAD7 mRNA expression (human SMAD7 mRNA [1]; Hep3B cells, electroporation with 10,000 nM antisense oligonucleotide, primer probe set RTS5062, relative to untreated control cells): 82%
% Inhibition (human SMAD7 mRNA [1]; [9]): 45%
% inhibition of SMAD7 mRNA expression (human SMAD7 mRNA [2]; [10]): 41%
% inhibition of SMAD7 mRNA expression (human SMAD7 mRNA [2]; 2220 nM, Study 2): 62%
% inhibition of SMAD7 mRNA expression (human SMAD7 mRNA [2]; 6670.0 nM, Study 2): 58%
% inhibition of SMAD7 mRNA expression (human SMAD7 mRNA [2]; 20000.0 nM, Study 2): 79%
IC50 (human SMAD7 mRNA [2]): 1 µM
% inhibition of SMAD7 mRNA expression (human SMAD7 mRNA [3]; 0.74 μM): 0%
% inhibition of SMAD7 mRNA expression (human SMAD7 mRNA [3]; 2.22 μM): 22% and 25%
% inhibition of SMAD7 mRNA expression (human SMAD7 mRNA [3]; 6.67 μM): 36% and 47%
% inhibition of SMAD7 mRNA expression (human SMAD7 mRNA [3]; 20.00 μM): 61%
IC50 (human SMAD7 mRNA [3]): 13 µM and 9 µM

772797 (AATGAACTGTATCTCC; sugars from the 5' end k3 d10 k3, all phosphorothioate, methylation of C not given here) [compound 772797]
Mouse Smad7 mRNA expression (% inhibition), Colon (mouse Smad7 mRNA [4]; colon): 1 % inhibition
Mouse Smad7 mRNA expression (% inhibition), Duodenum (mouse Smad7 mRNA [4]; duodenum): 36 % inhibition
Mouse Smad7 mRNA expression (% inhibition), Ileum (mouse Smad7 mRNA [4]; ileum): 8 % inhibition
Mouse Smad7 mRNA expression (% inhibition), Kidney (mouse Smad7 mRNA [4]; kidney): 0 % inhibition
Mouse Smad7 mRNA expression (% inhibition), Liver (mouse Smad7 mRNA [4]; liver): 7 % inhibition

800821 (antisense kG*k[5mC]*kT*dA*dA*dA*dT*dT*dT*d[5mC]*d[5mC]*dA*dA*kT*kG*kA) [compound 800821]
% Inhibition (human SMAD7 mRNA [1]; [9]): 56%
% inhibition of SMAD7 mRNA expression (human SMAD7 mRNA [3]; 0.25 μM): 14%
% inhibition of SMAD7 mRNA expression (human SMAD7 mRNA [3]; 0.74 μM): 30%
% inhibition of SMAD7 mRNA expression (human SMAD7 mRNA [3]; 2.22 μM): 35%
% inhibition of SMAD7 mRNA expression (human SMAD7 mRNA [3]; 6.67 μM): 58%
% inhibition of SMAD7 mRNA expression (human SMAD7 mRNA [3]; 20.00 μM): 79%
IC50 (human SMAD7 mRNA [3]): 4 µM

801040 (antisense kG*kT*k[5mC]*dA*dT*dG*dA*dA*dA*dG*dA*dT*dT*k[5mC]*kT*kT) [compound 801040]
% Inhibition (human SMAD7 mRNA [1]; [9]): 72%
% inhibition of SMAD7 mRNA expression (human SMAD7 mRNA [2]; [10]): 52%
% inhibition of SMAD7 mRNA expression (human SMAD7 mRNA [2]; 2220 nM, Study 2): 55%
% inhibition of SMAD7 mRNA expression (human SMAD7 mRNA [2]; 6670.0 nM, Study 2): 60%
% inhibition of SMAD7 mRNA expression (human SMAD7 mRNA [2]; 20000.0 nM, Study 2): 95%
IC50 (human SMAD7 mRNA [2]): 1 µM
% inhibition of SMAD7 mRNA expression (human SMAD7 mRNA [3]; 0.25 μM): 31%
% inhibition of SMAD7 mRNA expression (human SMAD7 mRNA [3]; 0.74 μM): 44%
% inhibition of SMAD7 mRNA expression (human SMAD7 mRNA [3]; 2.22 μM): 67%
% inhibition of SMAD7 mRNA expression (human SMAD7 mRNA [3]; 6.67 μM): 63%
% inhibition of SMAD7 mRNA expression (human SMAD7 mRNA [3]; 20.00 μM): 91%
IC50 (human SMAD7 mRNA [3]): 1 µM

801051 (antisense kG*kT*kG*dT*dT*d[5mC]*dA*dA*d[5mC]*dA*dA*dT*dG*k[5mC]*kT*kT) [compound 801051]
% Inhibition (human SMAD7 mRNA [1]; [9]): 68%
% inhibition of SMAD7 mRNA expression (human SMAD7 mRNA [2]; [10]): 52%
% inhibition of SMAD7 mRNA expression (human SMAD7 mRNA [2]; 2220 nM, Study 2): 62%
% inhibition of SMAD7 mRNA expression (human SMAD7 mRNA [2]; 6670.0 nM, Study 2): 76%
% inhibition of SMAD7 mRNA expression (human SMAD7 mRNA [2]; 20000.0 nM, Study 2): 88%
IC50 (human SMAD7 mRNA [2]): 4 µM
% inhibition of SMAD7 mRNA expression (human SMAD7 mRNA [3]; 0.25 μM): 0%
% inhibition of SMAD7 mRNA expression (human SMAD7 mRNA [3]; 0.74 μM): 10%
% inhibition of SMAD7 mRNA expression (human SMAD7 mRNA [3]; 2.22 μM): 34%
% inhibition of SMAD7 mRNA expression (human SMAD7 mRNA [3]; 6.67 μM): 62%
% inhibition of SMAD7 mRNA expression (human SMAD7 mRNA [3]; 20.00 μM): 83%
IC50 (human SMAD7 mRNA [3]): 4 µM

830027 (antisense kA*kA*k[5mC]*d[5mC]*dA*dT*dT*dT*dA*dT*d[5mC]*dT*dG*kG*kT*kG) [compound 830027]
% Inhibition (human SMAD7 mRNA [1]; Hep3B cells, electroporation with 10,000 nM antisense oligonucleotide, SMAD7 mRNA by RT-PCR (RTS5062), relative to untreated control cells): 23%
ALT [5]: 40 IU/L
AST [5]: 104 IU/L
Albumin [5]: 2.5 g/dL
BUN [5]: 23 mg/dL
Organ weights, Kidneys [6]: 0.6 g
Organ weights, Liver [6]: 2.6 g
Organ weights, Spleen [6]: 0.2 g
Eosinophils [7]: 1.9
Hematocrit [7]: 44.7%
Hemoglobin [7]: 14.7 g/dL
Lymphocytes [7]: 64.4%
MCH [7]: 15.1 pg
MCHC [7]: 32.9 g/dL
MCV [7]: 46.3 fL
Monocytes [7]: 8.2
Neutrophils [7]: 25.6%
RBC [7]: 9.7
Reticulocytes [7]: 3.4%
WBC [7]: 8.6 10^3/μL
platelets [7]: 1141.8 10^3/μL

ION 736697: uniform deoxy phosphorothioate oligonucleotide GTCGCCCCTTCTCCCCGCAGC (SEQ ID NO: 2736), same sequence and chemistry as GED-0301 (Mongersen) (DNA, all phosphorothioate, methylation of C not given here) [reference compound]
Mouse Smad7 mRNA expression (% inhibition), Colon (mouse Smad7 mRNA [8]; colon): 3 % inhibition
Mouse Smad7 mRNA expression (% inhibition), Duodenum (mouse Smad7 mRNA [8]; duodenum): 0 % inhibition
Mouse Smad7 mRNA expression (% inhibition), Ileum (mouse Smad7 mRNA [8]; ileum): 0 % inhibition
Mouse Smad7 mRNA expression (% inhibition), Kidney (mouse Smad7 mRNA [8]; kidney): 9 % inhibition
Mouse Smad7 mRNA expression (% inhibition), Liver (mouse Smad7 mRNA [8]; liver): 6 % inhibition
